# Tests used:
# AXL = AXL (Homo sapiens, UniProt P30530); assay: Kinase selectivity panel; type: biochemical; details: [ATP] = 1 mM
# BTK = BTK (Homo sapiens, UniProt Q06187); assay: Kinase selectivity panel; type: biochemical; details: [ATP] = 1 mM
# PDGFR BETA = PDGFR BETA (Homo sapiens, UniProt P09619); assay: Kinase selectivity panel; type: biochemical; details: [ATP] = 1 mM
# TRKA = TRKA (Homo sapiens, UniProt P04629); assay: Kinase selectivity panel; type: biochemical; details: [ATP] = 1 mM
# STK4 = STK4 (Homo sapiens, UniProt Q13043); assay: Kinase selectivity panel; type: biochemical; details: [ATP] = 1 mM
# MAPKAPK2 = MAPKAPK2 (Homo sapiens, UniProt P49137); assay: Kinase selectivity panel; type: biochemical; details: [ATP] = 1 mM
# MOLM-16 (AML) xenografts = assay: Tumor growth in MOLM-16 (AML) xenograft; type: in vivo, mouse
# Experimental: (§1) Female immune compromised (severe combined immunodeficiency [SCID]) mice (5–9 weeks of age; Charles River Laboratories, Wilmington, Massachusetts) were inoculated with MOLM-16, KG-1, or KMS-12-BM cells. A cell suspension in Dulbecco’s phosphate-buffered saline (DPBS) (1 × 10^8 cells/ml) was mixed 1:1 (v/v) with matrigel, and 200 μl was injected subcutaneously into the flank of each mouse. Studies of INCB053914 combination regimens used xenograft models derived from INA-6 (MM) cells or Pfeiffer (DLBCL) cells. INA-6 tumor fragments were injected subcutaneously as brei (100 μl in Hank’s balanced salt solution [HBSS, 1:10 v/v]) into the flank of each mouse; Pfeiffer tumor fragments (1 cm × 1 cm) were directly implanted. The treatment of tumor-bearing mice started 7 to 24 days after tumor inoculation for efficacy studies and approximately 14 to 27 days after tumor inoculation for pharmacodynamic studies.
# For efficacy studies, mice were sorted to obtain approximately equivalent mean tumor volumes in each group. The starting mean tumor volume in efficacy studies for all groups ranged from 158 mm^3 to 249 mm^3, and groups consisted of eight or nine animals. The mean tumor volume in pharmacodynamic studies for all groups ranged from 114 mm^3 to 833 mm^3, and groups consisted of three to eight animals. […]
# (§2) Tumor volume was calculated in two dimensions using the equation: volume = [length × (width^2)] / 2, where the larger number was length and the smaller number was width. Effects on tumor growth were reported as percent tumor growth inhibition calculated as (1 − [treatment volume / control volume]) × 100, where control volume was the vehicle/untreated tumor volume on a given day and treatment volume was any treatment group tumor volume on that same day. Statistical significance of differences between treatment and vehicle controls was assessed using analysis of variance single factor test.
# IKKB = IKKB (Homo sapiens, UniProt O14920); assay: Kinase selectivity panel; type: biochemical; details: [ATP] = 1 mM
# PIM1 = PIM1 (Homo sapiens, UniProt P11309); assay: Kinase selectivity panel; type: biochemical; details: [ATP] = 1 mM
# [1] = system: KMS-12-BM (MM) xenografts; assay: Tumor growth in KMS-12-BM (MM) xenograft; type: in vivo, mouse; details: KMS-12-BM tumors
# Experimental: as §1
# For efficacy studies, mice were sorted to obtain approximately equivalent mean tumor volumes in each group. The starting mean tumor volume in efficacy studies for all groups ranged from 158 mm^3 to 249 mm^3, and groups consisted of eight or nine animals. The mean tumor volume in pharmacodynamic studies for all groups ranged from 114 mm^3 to 833 mm^3, and groups consisted of three to eight animals. INCB053914 was administered by oral gavage twice a day for 7 to 19 days (suspension in 5% dimethylacetamide with 0.5% w/v methylcellulose [Sigma-Aldrich]) or by subcutaneous continuous infusion (Alzet osmotic pumps; flow rate 0.5 μl/h for efficacy studies and 1.0 μl/h for pharmacodynamic studies).
# For the evaluation of the effects of INCB053914 on tumor growth, tumor-bearing mice (MOLM-16 xenograft, eight mice/group; KMS-12-BM xenograft, nine mice/group) were dosed orally twice a day with INCB053914 at doses ranging from 0 (vehicle) to 100 mg/kg for 15 days.
# as §2
# FLT3 = FLT3 (Homo sapiens, UniProt P36888); assay: Kinase selectivity panel; type: biochemical; details: [ATP] = 1 mM
# CAMK2D = CAMK2D (Homo sapiens, UniProt Q13557); assay: Kinase selectivity panel; type: biochemical; details: [ATP] = 1 mM
# KIT = KIT (Homo sapiens, UniProt P10721); assay: Kinase selectivity panel; type: biochemical; details: [ATP] = 1 mM
# EPHA2 = EPHA2 (Homo sapiens, UniProt P29317); assay: Kinase selectivity panel; type: biochemical; details: [ATP] = 1 mM
# EGFR = EGFR (Homo sapiens, UniProt P00533); assay: Kinase selectivity panel; type: biochemical; details: [ATP] = 1 mM
# panel of 192 kinases = assay: Broader panel of 192 kinases (PerkinElmer); type: biochemical; details: INCB053914 100 nM; results not shown
# [2] = system: BAD phosphorylation in MOLM-16 tumors; assay: Intratumoral pBAD inhibition in xenograft-bearing mice; type: in vivo; details: Mus musculus, MOLM16, single oral dose, 4 hours post dose, read-out: IC50, inhibition of BAD phosphorylation relative to vehicle in tumors
# Experimental: (§3) Human MOLM-16 (AML) and KMS-12-BM (MM) xenografts were established in SCID mice. For the evaluation of intratumoral pBAD inhibition, tumor-bearing mice (three to eight mice/group) were treated with a single oral dose of INCB053914 at doses ranging from 0 (vehicle) to 100 mg/kg. In one representative experiment, mice were sacrificed 4 hours after a single dose, and tumors were collected to analyze the levels of pBAD relative to those of vehicle-administered controls. Plasma samples were collected for pharmacokinetic analysis.
# [3] = system: BAD phosphorylation in KMS-12-BM tumors; assay: as above; type: in vivo; details: Mus musculus, single oral dose, 4 hours post dose, read-out: IC50, inhibition of BAD phosphorylation relative to vehicle in tumors
# Experimental: as §3
# MINK = MINK (Homo sapiens, UniProt Q8N4C8); assay: Kinase selectivity panel; type: biochemical; details: [ATP] = 1 mM
# PKCD = PKCD (Homo sapiens, UniProt Q05655); assay: Kinase selectivity panel; type: biochemical; details: [ATP] = 1 mM
# PAK4 = PAK4 (Homo sapiens, UniProt O96013); assay: Kinase selectivity panel; type: biochemical; details: [ATP] = 1 mM
# Sequence of PAK4 (O96013 whole entry): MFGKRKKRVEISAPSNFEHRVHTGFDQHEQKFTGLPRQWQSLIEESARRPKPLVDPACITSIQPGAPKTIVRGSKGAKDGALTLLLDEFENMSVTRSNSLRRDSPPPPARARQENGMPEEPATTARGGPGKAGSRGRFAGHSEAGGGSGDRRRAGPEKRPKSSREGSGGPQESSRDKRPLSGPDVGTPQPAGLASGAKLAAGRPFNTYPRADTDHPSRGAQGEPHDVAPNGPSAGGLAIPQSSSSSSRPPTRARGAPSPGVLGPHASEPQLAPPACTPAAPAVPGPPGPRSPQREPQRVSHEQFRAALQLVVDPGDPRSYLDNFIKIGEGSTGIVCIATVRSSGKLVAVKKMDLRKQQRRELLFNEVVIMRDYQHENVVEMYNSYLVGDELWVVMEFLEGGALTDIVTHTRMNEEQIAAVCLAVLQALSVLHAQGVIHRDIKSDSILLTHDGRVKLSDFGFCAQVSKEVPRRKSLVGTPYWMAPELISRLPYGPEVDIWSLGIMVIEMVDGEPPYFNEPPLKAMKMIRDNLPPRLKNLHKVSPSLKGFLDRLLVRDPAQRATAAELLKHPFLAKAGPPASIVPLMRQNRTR
# Sequence of IKKB (O14920 whole entry): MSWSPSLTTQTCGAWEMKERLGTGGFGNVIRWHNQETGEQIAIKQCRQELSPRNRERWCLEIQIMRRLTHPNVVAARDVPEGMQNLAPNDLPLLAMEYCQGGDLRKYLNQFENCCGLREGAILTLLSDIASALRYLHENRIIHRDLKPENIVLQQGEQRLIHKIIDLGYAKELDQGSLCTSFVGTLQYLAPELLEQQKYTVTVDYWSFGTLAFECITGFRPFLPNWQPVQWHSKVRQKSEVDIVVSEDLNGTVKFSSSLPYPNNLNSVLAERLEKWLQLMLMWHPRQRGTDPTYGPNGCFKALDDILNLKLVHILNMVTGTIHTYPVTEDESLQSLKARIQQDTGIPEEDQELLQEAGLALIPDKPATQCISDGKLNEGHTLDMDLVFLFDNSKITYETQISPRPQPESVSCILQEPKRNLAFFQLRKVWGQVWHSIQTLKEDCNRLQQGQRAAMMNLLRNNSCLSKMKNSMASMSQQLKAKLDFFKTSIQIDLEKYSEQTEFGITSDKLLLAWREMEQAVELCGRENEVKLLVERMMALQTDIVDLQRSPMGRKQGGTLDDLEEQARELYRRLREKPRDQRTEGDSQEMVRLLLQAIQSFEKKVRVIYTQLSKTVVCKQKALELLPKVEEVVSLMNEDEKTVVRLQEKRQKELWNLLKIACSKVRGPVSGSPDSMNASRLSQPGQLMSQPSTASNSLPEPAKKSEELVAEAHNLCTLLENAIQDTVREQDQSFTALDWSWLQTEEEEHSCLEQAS
# Sequence of TRKA (P04629 33-796, species assumed): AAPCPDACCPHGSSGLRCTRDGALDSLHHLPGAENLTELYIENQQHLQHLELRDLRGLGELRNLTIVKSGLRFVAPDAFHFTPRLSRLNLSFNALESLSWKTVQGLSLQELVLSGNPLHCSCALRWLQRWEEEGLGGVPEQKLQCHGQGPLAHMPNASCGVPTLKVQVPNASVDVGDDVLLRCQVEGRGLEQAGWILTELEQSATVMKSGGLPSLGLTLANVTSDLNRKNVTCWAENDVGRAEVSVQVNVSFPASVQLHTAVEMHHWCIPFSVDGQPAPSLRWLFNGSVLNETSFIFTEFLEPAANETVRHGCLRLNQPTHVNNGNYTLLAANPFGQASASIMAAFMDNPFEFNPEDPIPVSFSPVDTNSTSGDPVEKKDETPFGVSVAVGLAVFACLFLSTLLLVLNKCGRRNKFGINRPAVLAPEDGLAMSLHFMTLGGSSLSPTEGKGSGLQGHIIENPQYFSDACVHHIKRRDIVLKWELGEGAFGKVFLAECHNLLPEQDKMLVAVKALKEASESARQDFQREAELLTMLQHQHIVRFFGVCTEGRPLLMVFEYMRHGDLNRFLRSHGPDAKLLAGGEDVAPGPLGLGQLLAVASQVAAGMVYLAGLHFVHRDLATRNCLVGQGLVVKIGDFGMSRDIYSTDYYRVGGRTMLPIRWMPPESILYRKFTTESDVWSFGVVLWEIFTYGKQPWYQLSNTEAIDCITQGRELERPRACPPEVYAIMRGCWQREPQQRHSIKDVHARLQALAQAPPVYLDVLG
# Sequence of PIM1 (P11309 whole entry): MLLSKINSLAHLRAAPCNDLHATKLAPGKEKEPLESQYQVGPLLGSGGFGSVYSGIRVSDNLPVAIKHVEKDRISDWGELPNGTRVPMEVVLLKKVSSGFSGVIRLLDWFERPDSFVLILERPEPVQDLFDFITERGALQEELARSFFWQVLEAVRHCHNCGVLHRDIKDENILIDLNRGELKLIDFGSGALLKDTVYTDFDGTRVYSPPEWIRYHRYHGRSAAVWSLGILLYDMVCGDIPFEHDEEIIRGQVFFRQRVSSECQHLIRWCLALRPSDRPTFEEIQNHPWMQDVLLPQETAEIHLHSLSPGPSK
# Sequence of EGFR (P00533 25-1210): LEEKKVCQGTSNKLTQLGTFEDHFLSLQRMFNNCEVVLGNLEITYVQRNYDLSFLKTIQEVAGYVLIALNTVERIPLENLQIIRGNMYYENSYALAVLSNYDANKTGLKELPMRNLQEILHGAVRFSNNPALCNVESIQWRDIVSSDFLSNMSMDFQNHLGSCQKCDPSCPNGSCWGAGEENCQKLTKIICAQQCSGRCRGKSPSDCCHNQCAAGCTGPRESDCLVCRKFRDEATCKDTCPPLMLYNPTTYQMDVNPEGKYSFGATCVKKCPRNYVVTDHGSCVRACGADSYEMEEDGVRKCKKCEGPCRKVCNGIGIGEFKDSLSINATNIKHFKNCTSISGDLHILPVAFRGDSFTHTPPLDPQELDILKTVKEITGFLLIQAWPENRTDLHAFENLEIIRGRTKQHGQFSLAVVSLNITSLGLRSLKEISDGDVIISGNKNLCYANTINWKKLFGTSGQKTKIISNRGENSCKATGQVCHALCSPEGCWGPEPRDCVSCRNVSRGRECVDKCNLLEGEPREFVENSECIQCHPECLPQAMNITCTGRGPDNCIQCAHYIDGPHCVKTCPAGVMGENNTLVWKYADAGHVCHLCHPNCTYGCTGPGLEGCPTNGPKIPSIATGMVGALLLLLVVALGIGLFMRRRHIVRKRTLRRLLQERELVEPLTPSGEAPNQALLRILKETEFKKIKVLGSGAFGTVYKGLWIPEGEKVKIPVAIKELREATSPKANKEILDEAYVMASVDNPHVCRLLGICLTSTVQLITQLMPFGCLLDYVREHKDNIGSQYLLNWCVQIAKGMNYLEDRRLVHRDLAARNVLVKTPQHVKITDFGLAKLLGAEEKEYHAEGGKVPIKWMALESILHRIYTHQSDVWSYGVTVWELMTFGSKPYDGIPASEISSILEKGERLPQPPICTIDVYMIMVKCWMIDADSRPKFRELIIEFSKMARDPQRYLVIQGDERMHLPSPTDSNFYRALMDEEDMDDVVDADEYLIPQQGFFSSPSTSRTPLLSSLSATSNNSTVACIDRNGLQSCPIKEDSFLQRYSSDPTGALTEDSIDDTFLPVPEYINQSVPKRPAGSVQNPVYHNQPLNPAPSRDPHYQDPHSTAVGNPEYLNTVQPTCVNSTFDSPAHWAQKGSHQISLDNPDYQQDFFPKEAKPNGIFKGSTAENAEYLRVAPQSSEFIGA
# Sequence of FLT3 (P36888 27-993): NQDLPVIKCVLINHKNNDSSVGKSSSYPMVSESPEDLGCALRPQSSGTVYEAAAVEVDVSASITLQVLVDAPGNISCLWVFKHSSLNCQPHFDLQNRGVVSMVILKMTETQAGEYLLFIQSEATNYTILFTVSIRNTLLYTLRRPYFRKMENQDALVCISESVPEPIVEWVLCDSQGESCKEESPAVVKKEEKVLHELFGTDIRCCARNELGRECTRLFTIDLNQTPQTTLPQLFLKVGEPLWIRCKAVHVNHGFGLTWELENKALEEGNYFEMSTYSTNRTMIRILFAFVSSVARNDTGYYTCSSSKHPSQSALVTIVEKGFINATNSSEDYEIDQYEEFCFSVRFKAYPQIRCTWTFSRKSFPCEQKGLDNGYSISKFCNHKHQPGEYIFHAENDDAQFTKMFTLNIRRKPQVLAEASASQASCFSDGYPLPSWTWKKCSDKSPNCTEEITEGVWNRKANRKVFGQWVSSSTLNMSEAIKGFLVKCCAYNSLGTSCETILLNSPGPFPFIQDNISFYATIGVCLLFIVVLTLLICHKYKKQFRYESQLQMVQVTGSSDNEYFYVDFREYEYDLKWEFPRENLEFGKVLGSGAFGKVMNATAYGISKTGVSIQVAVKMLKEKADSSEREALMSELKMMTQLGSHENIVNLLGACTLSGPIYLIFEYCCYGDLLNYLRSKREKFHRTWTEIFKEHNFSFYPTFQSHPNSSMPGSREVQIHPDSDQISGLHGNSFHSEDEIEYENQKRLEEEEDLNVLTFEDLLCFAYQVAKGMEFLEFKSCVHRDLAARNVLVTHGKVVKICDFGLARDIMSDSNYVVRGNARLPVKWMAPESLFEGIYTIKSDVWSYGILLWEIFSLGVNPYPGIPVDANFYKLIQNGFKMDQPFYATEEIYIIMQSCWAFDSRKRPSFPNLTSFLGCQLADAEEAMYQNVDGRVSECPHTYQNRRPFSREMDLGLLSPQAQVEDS
# Sequence of MAPKAPK2 (P49137 whole entry): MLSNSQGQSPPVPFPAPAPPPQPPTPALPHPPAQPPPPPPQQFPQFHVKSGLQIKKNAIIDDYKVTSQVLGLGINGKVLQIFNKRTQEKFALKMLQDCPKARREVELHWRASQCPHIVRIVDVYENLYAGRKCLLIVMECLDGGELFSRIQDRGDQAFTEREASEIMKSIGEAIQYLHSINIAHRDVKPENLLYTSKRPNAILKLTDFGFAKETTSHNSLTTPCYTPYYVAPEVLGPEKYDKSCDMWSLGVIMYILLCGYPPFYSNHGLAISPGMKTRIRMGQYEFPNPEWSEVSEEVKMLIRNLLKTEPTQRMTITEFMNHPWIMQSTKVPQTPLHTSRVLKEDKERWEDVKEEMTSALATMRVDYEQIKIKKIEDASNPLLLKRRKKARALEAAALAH
compound,measurement,setting,value
"C[C@H]1CN(c2c(NC(=O)c3ccc(F)c(-c4c(F)cccc4F)n3)cnc3c2CC[C@H]3O)C[C@@H](N)[C@@H]1O.O=P(O)(O)O [INCB053914, N-((R)-4-((3R,4R,5S)-3-amino-4-hydroxy-5-methylpiperidin-1-yl)-7-hydroxy-6,7-dihydro-5H-cyclopenta[b]pyridin-3-yl)-6-(2,6-difluorophenyl)-5-fluoropicolinamide phosphate]",IC50,AXL,> 20 µM
same,IC50,BTK,> 20 µM
same,IC50,PDGFR BETA,> 20 µM
same,IC50,TRKA,> 20 µM
same,IC50,STK4,> 20 µM
same,IC50,MAPKAPK2,> 20 µM
same,lowest dose at which tumor growth inhibition was apparent,MOLM-16 (AML) xenografts; MOLM-16 model,1 mg/kg
same,maximal tumor growth inhibition,"MOLM-16 (AML) xenografts; MOLM-16 tumors, 30 mg/kg twice a day orally",96%
same,mice with a partial regression (PR),"MOLM-16 (AML) xenografts; MOLM-16 tumors, 30 mg/kg twice a day, PR = ≥50% decrease in tumor volume vs treatment start, eight mice/group, 30 mg/kg",six of eight
same,IC50,IKKB,> 20 µM
same,IC50,PIM1,< 0.012 µM
same,tumor growth inhibition,[1]; 25 mg/kg twice a day,43%
same,tumor growth inhibition,[1]; 50 mg/kg twice a day,71%
same,tumor growth inhibition,[1]; 75 mg/kg twice a day,77%
same,tumor growth inhibition,[1]; 100 mg/kg twice a day,88%
same,IC50,FLT3,> 20 µM
same,IC50,CAMK2D,> 20 µM
same,IC50,KIT,> 20 µM
same,IC50,EPHA2,> 20 µM
same,IC50,EGFR,> 20 µM
same,kinases significantly inhibited in the panel of 192 kinases,panel of 192 kinases,no kinase other than Per-Arnt-Sim (PAS) kinase was significantly inhibited
same,IC50,[2],0.07 µM
same,IC50,[3],0.145 µM
same,IC50,MINK,> 20 µM
same,IC50,PKCD,> 20 µM
same,IC50,PAK4,> 20 µM

# Reference: paper PMC6013247, “Preclinical characterization of INCB053914, a novel pan-PIM kinase inhibitor, alone and in combination with anticancer agents, in models of hematologic malignancies” (PLoS ONE, 2018)
